According to US8450313B2, “2,3-diaryl- or heteroaryl-substituted 1,1,1-trifluoro-2-hydroxypropyl compounds” (Hoffmann-La Roche Inc., priority 2009, dated 2013):

Molecular target: T1, full length human recombinant glucocorticoid receptor (Homo sapiens, UniProt P04150)
T1 construct: It contains some partially purified full length human recombinant glucocorticoid receptor; purchased Panvera/Invitrogen PV4302
T1 sequence (P04150 1-777): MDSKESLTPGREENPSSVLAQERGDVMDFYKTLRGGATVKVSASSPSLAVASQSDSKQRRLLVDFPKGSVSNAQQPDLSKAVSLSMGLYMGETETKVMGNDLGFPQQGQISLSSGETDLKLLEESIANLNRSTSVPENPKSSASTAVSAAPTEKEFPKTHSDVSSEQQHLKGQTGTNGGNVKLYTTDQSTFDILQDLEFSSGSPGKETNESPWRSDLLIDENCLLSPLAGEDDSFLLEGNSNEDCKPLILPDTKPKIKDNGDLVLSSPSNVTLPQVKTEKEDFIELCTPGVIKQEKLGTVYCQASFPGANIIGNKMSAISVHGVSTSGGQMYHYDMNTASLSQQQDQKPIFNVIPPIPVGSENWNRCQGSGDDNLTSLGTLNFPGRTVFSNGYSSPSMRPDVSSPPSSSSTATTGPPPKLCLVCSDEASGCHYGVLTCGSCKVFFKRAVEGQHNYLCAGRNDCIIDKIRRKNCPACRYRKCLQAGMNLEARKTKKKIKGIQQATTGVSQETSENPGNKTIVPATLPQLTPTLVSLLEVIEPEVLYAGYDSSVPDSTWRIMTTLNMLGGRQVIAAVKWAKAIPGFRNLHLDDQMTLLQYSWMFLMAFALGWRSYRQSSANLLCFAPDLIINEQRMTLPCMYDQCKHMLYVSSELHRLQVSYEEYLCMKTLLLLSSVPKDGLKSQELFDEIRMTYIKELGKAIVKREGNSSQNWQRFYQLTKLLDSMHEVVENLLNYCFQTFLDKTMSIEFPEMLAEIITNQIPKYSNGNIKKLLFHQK
Test: Glucocorticoid Receptor Binding Assay (Glucocorticoid Receptor Competitor Assay far red kit, fluorescence polarization)
Settings: competition with fluorescent GR ligand Fluormone GS Far Red, 3 hours at 22° C., pH 7.4; Ki calculated from IC50 by Cheng-Prusoff
Summary of the method: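 Fluorescence polarization competition with partially purified full-length human recombinant GR, stabilizing peptide and Fluormone GS Far Red tracer in screening buffer pH 7.4; 3 hours at 22° C in the dark, read at 610–660 nm. IC50 from sigmoidal fit; Ki by Cheng-Prusoff.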

Ki [nM]	Structure (SMILES)
191	CCN1C(=O)COc2ccc([C@](O)([C@H](C)c3ccc(-c4ccc(Cl)c(C(=O)O)c4)cc3Cl)C(F)(F)F)cc21 (relative stereo) [Example 66, 4,3′-Dichloro-4′-[2-(4-ethyl-3-oxo-3,4-dihydro-2H-benzo[1,4]oxazin-6-yl)-3,3,3-trifluoro-2-hydroxy-1-methyl-propyl]-biphenyl-3-carboxylic acid]
40.2	CCN1C(=O)COc2ccc([C@](O)([C@H](C)c3ccc(-c4ccc(F)c(C(=O)O)c4)cc3Cl)C(F)(F)F)cc21 (relative stereo) [Example 67, 3′-Chloro-4′-[2-(4-ethyl-3-oxo-3,4-dihydro-2H-benzo[1,4]oxazin-6-yl)-3,3,3-trifluoro-2-hydroxy-1-methyl-propyl]-4-fluoro-biphenyl-3-carboxylic acid]
59.8	CCN1C(=O)COc2ccc([C@](O)([C@H](C)c3ccc(Oc4cc(C(F)(F)F)c(C(=O)O)cn4)cc3Cl)C(F)(F)F)cc21 (relative stereo) [Example 68, 6-{3-Chloro-4-[2-(4-ethyl-3-oxo-3,4-dihydro-2H-benzo[1,4]oxazin-6-yl)-3,3,3-trifluoro-2-hydroxy-1-methyl-propyl]-phenoxy}-4-trifluoromethyl-nicotinic acid]
35.9	CCN1C(=O)COc2ccc([C@@](O)([C@@H](C)c3ccc(Oc4ccc(C(=O)O)c(Cl)n4)cc3Cl)C(F)(F)F)cc21 (relative stereo) [Example 69, 2-Chloro-6-{3-chloro-4-[2-(4-ethyl-3-oxo-3,4-dihydro-2H-benzo[1,4]oxazin-6-yl)-3,3,3-trifluoro-2-hydroxy-1-methyl-propyl]-phenoxy}-nicotinic acid]
28.1	COC(=O)c1ccc(-c2ccc([C@@H](C)[C@@](O)(c3ccc4c(c3)NC(=O)CO4)C(F)(F)F)c(Cl)c2)cc1F (relative stereo) [Example 71, 3′-Chloro-3-fluoro-4′-[3,3,3-trifluoro-2-hydroxy-1-methyl-2-(3-oxo-3,4-dihydro-2H-benzo[1,4]oxazin-6-yl)-propyl]-biphenyl-4-carboxylic acid methyl ester]
222	C[C@H](c1ccc(-c2ccc(C(=O)O)c(F)c2)cc1Cl)[C@@](O)(c1ccc2c(c1)NC(=O)CO2)C(F)(F)F (relative stereo) [Example 72, 3′-Chloro-3-fluoro-4′-[3,3,3-trifluoro-2-hydroxy-1-methyl-2-(3-oxo-3,4-dihydro-2H-benzo[1,4]oxazin-6-yl)-propyl]-biphenyl-4-carboxylic acid]
11.9	C[C@H](c1ccc(-c2ccc(C(=O)O)nc2)cc1Cl)[C@@](O)(c1ccc2c(c1)n(C)c(=O)n2C)C(F)(F)F (relative stereo) [Example 84, 5-{3-Chloro-4-[2-(1,3-dimethyl-2-oxo-2,3-dihydro-1H-benzoimidazol-5-yl)-3,3,3-trifluoro-2-hydroxy-1-methyl-propyl]-phenyl}-pyridine-2-carboxylic acid]
2.4	C[C@H](c1ccc(Oc2ccccc2C(=O)O)cc1Cl)[C@@](O)(c1ccc2c(c1)n(C)c(=O)n2C)C(F)(F)F (relative stereo) [Example 96, 2-{3-Chloro-4-[2-(1,3-dimethyl-2-oxo-2,3-dihydro-1H-benzoimidazol-5-yl)-3,3,3-trifluoro-2-hydroxy-1-methyl-propyl]-phenoxy}-benzoic acid]
5	COc1cc(Oc2ccc([C@@H](C)[C@@](O)(c3ccc4c(c3)n(C)c(=O)n4C)C(F)(F)F)c(Cl)c2)ccc1C(=O)O (relative stereo) [Example 97, 4-{3-Chloro-4-[2-(1,3-dimethyl-2-oxo-2,3-dihydro-1H-benzoimidazol-5-yl)-3,3,3-trifluoro-2-hydroxy-1-methyl-propyl]-phenoxy}-2-methoxy-benzoic acid]
1.6	C[C@H](c1ccc(Oc2ccc(C(=O)O)cc2)cc1Cl)[C@@](O)(c1ccc2c(c1)n(C)c(=O)n2C)C(F)(F)F (relative stereo) [Example 98, 4-{3-Chloro-4-[2-(1,3-dimethyl-2-oxo-2,3-dihydro-1H-benzoimidazol-5-yl)-3,3,3-trifluoro-2-hydroxy-1-methyl-propyl]-phenoxy}-benzoic acid]
1.2	C[C@H](c1ccc(Oc2cccc(C(=O)O)c2)cc1Cl)[C@@](O)(c1ccc2c(c1)n(C)c(=O)n2C)C(F)(F)F (relative stereo) [Example 99, 3-{3-Chloro-4-[2-(1,3-dimethyl-2-oxo-2,3-dihydro-1H-benzoimidazol-5-yl)-3,3,3-trifluoro-2-hydroxy-1-methyl-propyl]-phenoxy}-benzoic acid]
0.5	C[C@@H](c1ccc(Oc2cc(C(F)(F)F)c(C(=O)O)cn2)cc1Cl)[C@](O)(c1ccc2c(c1)n(C)c(=O)n2C)C(F)(F)F (relative stereo) [Example 102, 6-{3-Chloro-4-[2-(1,3-dimethyl-2-oxo-2,3-dihydro-1H-benzoimidazol-5-yl)-3,3,3-trifluoro-2-hydroxy-1-methyl-propyl]-phenoxy}-4-trifluoromethyl-nicotinic acid]
23.1	C[C@H](c1ccc(Oc2ccc(C(=O)O)c(Cl)c2)cc1Cl)[C@](O)(c1ccc2c(c1)OCO2)C(F)(F)F (relative stereo) [Example 103, 4-[4-(2-Benzo[1,3]dioxol-5-yl-3,3,3-trifluoro-2-hydroxy-1-methyl-propyl)-3-chloro-phenoxy]-2-chloro-benzoic acid]
5.2	C[C@H](c1ccc(Oc2cnc(C(=O)O)cn2)cc1Cl)[C@@](O)(c1ccc2c(c1)n(C)c(=O)n2C)C(F)(F)F (relative stereo) [Example 106, 5-{3-Chloro-4-[2-(1,3-dimethyl-2-oxo-2,3-dihydro-1H-benzoimidazol-5-yl)-3,3,3-trifluoro-2-hydroxy-1-methyl-propyl]-phenoxy}-pyrazine-2-carboxylic acid]
354	C[C@H](c1ccc(-c2ccc(C(=O)O)c(F)c2)cc1Cl)[C@@](O)(c1ccc2[nH]c(=O)[nH]c2c1)C(F)(F)F (relative stereo) [Example 114, 3′-Chloro-3-fluoro-4′-[3,3,3-trifluoro-2-hydroxy-1-methyl-2-(2-oxo-2,3-dihydro-1H-benzoimidazol-5-yl)-propyl]-biphenyl-4-carboxylic acid]
1	C[C@H](c1ccc(Br)cc1Cl)[C@@](O)(c1ccc2oc(=O)n(C)c2c1)C(F)(F)F (relative stereo) [Example 116, 5-[2-(4-Bromo-2-chloro-phenyl)-1-hydroxy-1-trifluoromethyl-propyl]-3-methyl-3H-benzooxazol-2-one]
2.2	COC(=O)c1ccc(-c2ccc([C@@H](C)[C@@](O)(c3ccc4oc(=O)n(C)c4c3)C(F)(F)F)c(Cl)c2)cc1F (relative stereo) [Example 117, 3′-Chloro-3-fluoro-4′-[3,3,3-trifluoro-2-hydroxy-1-methyl-2-(3-methyl-2-oxo-2,3-dihydro-benzooxazol-5-yl)-propyl]-biphenyl-4-carboxylic acid methyl ester]
1.6	CCOC(=O)c1cc(-c2ccc([C@H](C)[C@](O)(c3ccc4oc(=O)n(C)c4c3)C(F)(F)F)c(Cl)c2)ccc1F (relative stereo) [Example 121, 3′-Chloro-4-fluoro-4′-[3,3,3-trifluoro-2-hydroxy-1-methyl-2-(3-methyl-2-oxo-2,3-dihydro-benzooxazol-5-yl)-propyl]-biphenyl-3-carboxylic acid ethyl ester]
0.5	C[C@H](c1ccc(-c2ccc(F)c(C(=O)O)c2)cc1Cl)[C@@](O)(c1ccc2oc(=O)n(C)c2c1)C(F)(F)F (relative stereo) [Example 122, 3′-Chloro-4-fluoro-4′-[3,3,3-trifluoro-2-hydroxy-1-methyl-2-(3-methyl-2-oxo-2,3-dihydro-benzooxazol-5-yl)-propyl]-biphenyl-3-carboxylic acid]
1.1	COC(=O)c1ccc(-c2ccc([C@@H](C)[C@@](O)(c3ccc4oc(=O)n(C)c4c3)C(F)(F)F)c(Cl)c2)cc1Cl (relative stereo) [Example 123, 3,3′-Dichloro-4′-[3,3,3-trifluoro-2-hydroxy-1-methyl-2-(3-methyl-2-oxo-2,3-dihydro-benzooxazol-5-yl)-propyl]-biphenyl-4-carboxylic acid methyl ester]
0.3	C[C@H](c1ccc(-c2ccc(C(=O)O)c(Cl)c2)cc1Cl)[C@@](O)(c1ccc2oc(=O)n(C)c2c1)C(F)(F)F (relative stereo) [Example 124, 3,3′-Dichloro-4′-[3,3,3-trifluoro-2-hydroxy-1-methyl-2-(3-methyl-2-oxo-2,3-dihydro-benzooxazol-5-yl)-propyl]-biphenyl-4-carboxylic acid]
